Assay [1] has as its system various cancer cell lines (Ras mutation or amplification). The assay can be described thus: Measurement of cell growth inhibitory activity against various cancer cell lines (CellTiter-Glo). The assay is classed as cell-based, human. In general terms: Cellular ATP, detected with luciferase, serves as a proxy for viable cell number.
Method: Various cancer cell lines used were purchased from commercial suppliers. […] The cell suspension and culture medium supplemented with serum were dispensed to a plate containing the test compounds at 40 μL (384 well plate) or 200 μL (96 well plate) per well and incubated in a carbon dioxide gas incubator. […] Six days or seven days after the start of cultivation, 20 μL of CellTiter-Glo (Promega) was added to each well and fluorescence was measured.
In assay [2] the target is protein-protein interaction between Kras and SOS1 (biotin-tagged human Kras loaded with GDP, His-tagged human SOS1) (Homo sapiens (Human), UniProt P01116, G12D). The assay can be described thus: Protein-protein interaction inhibition between Kras and SOS1 (KrasG12D-SOS PPI) using AlphaScreen.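 Also: kras produced in E. coli, Ni-coupled donor beads and streptavidin acceptor beads, excitation 680 nm with emission detected at 520–620 nm via singlet oxygen transfer.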 The format is biochemical. The settings on record: AlphaScreen; biotin-tagged human Kras loaded with GDP, His-tagged human SOS1; read-out: KRAS G12D-SOS PPI IC50. (In general: Alpha assays give light when donor and acceptor beads are brought close together.)

In a further assay the test system is A549 (NSCLC). The assay can be described thus: In vivo antitumor activity, mouse xenograft model, A549. To be noted: 10 days. From the text: Tumor growth inhibition rate (TGI %)=(1−TV/CV)×100
In the next assay the target is human KRAS G12C (human) (UniProt P01116). Briefly: cell-based or functional assay.
The next assay concerns the target human KRAS G12D (human) (UniProt P01116). Briefly: cell-based or functional assay.
The target in the next assay is human NRAS G13D (human) (UniProt P01111). The assay can be described thus: cell-based or functional assay.
A further assay has as its target human KRAS G12S (human) (UniProt P01116). The assay can be described thus: cell-based or functional assay.
Assay [3] has as its target human KRAS, gene copy number amplified (human) (UniProt P01116). Briefly: cell-based or functional assay.
A further assay has as its target human KRAS G12V (human) (UniProt P01116). Briefly: cell-based or functional assay.

Bridge positions count the residues as written; N and C are the ends. Square brackets hold non-standard residues; d marks the D form. Peptide text beside a SMILES is read from it. * marks the point of attachment. hPhe(3-Cl-4-CF3) = N[C@@H](CCc1ccc(C(F)(F)F)c(Cl)c1)C(=O)O; NMeCha = CN[C@@H](CC1CCCCC1)C(=O)O; NMeChg = CN[C@H](C(=O)O)C1CCCCC1; NMeD = CN[C@@H](CC(=O)O)C(=O)O; NMeL = CN[C@@H](CC(C)C)C(=O)O; Piperidide = C1CCN(*)CC1; Ac5c = NC1(C(=O)O)CCCC1; Sar = CNCC(=O)O

In the case of `CC[C@H](C)[C@@H]1NC(=O)[C@H](CC(C)C)N(C)C(=O)C[C@@H](C(=O)N2CCCCC2)N(C)C(=O)[C@H](C2CCCCC2)N(C)C(=O)C2(CCCC2)NC(=O)[C@@H]2CCCN2C(=O)[C@H](CCc2ccc(C(F)(F)F)c(Cl)c2)NC(=O)CN(C)C(=O)[C@H](CC2CCCCC2)N(C)C(=O)CN(C)C(=O)CN(C)C1=O` [Compound 558, (3S,9S,18S,21S,25S,28S,34S)-3-[2-[3-chloro-4-(trifluoromethyl)phenyl]ethyl]-28-cyclohexyl-9-(cyclohexylmethyl)-21-isobutyl-7,10,13,16,22,26,29-heptamethyl-18-[(1S)-1-methylpropyl]-25-(piperidine-1-carbonyl)spiro[1,4,7,10,13,16,19,22,26,29,32-undecazabicyclo[32.3.0]heptatriacontane-31,1′-cyclopentane]-2,5,8,11,14,17,20,23,27,30,33-undecone] ([NMeL]I[Sar][Sar][NMeCha][Sar][hPhe(3-Cl-4-CF3)]P[Ac5c][NMeChg][NMeD]-Piperidide; lactam N-11), the half-inhibitory concentration (IC50) amounted to 5.83 nM in assay [1] (A4/Fuk, Non-Hodgkin lymphoma, KRAS Amp); 7.98 nM in assay [1] (A549, NSCLC, KRAS G12S); 23.4 nM in [1] (KURAMOCHI, Ovary, KRAS Amp); 22.6 nM in assay [1] (LS 180, Colon, KRAS G12D); 18.7 nM in assay [1] (MIA PaCa-2, Pancreas, KRAS G12C); 31.6 nM in assay [1] (NCI-H441, NSCLC, KRAS G12V). Further, the IC50 in [1] (NCI-H929, Myeloma, NRAS G13D) is 55.7 nM; in [1] (SNU-1, Stomach, KRAS G12D), 29.8 nM; in assay [1] (SW480, Colon, KRAS G12V), 17.5 nM; in assay [2] it was 1.8 nM. In addition, the “TGI (%)” value in the assay on A549 (NSCLC) (10 mg/kg once daily) was 46%; in the assay on A549 (NSCLC) (15 mg/kg once daily), 57%; with A549 (NSCLC) (30 mg/kg once daily), 106%.

B1: Compound 558 (peptide)
peptide: [NMeL]I[Sar][Sar][NMeCha][Sar][hPhe(3-Cl-4-CF3)]P[Ac5c][NMeChg]D-Piperidide
modifications: lactam N-11; not fully specified (residue 11)
In the assay with human KRAS G12C (human), B1 showed an IC50, cell growth inhibition (CellTiter-Glo), MIA PaCa-2 (Pancreas) of 18.7 nM. In the assay with human KRAS G12D (human), the IC50, cell growth inhibition (CellTiter-Glo), LS 180 (Colon) turned out to be 22.6 nM and the IC50, cell growth inhibition (CellTiter-Glo), SNU-1 (Stomach) worked out at 29.8 nM. In addition, the IC50, cell growth inhibition (CellTiter-Glo), NCI-H929 (Myeloma) with human NRAS G13D (human) was 55.7 nM. The molecule also gave an IC50, cell growth inhibition (CellTiter-Glo), A549 (NSCLC) with human KRAS G12S (human) of 7.98 nM. In [3], the IC50, cell growth inhibition (CellTiter-Glo), A4/Fuk (Non-Hodgkin lymphoma), KRAS Amp turned out to be 5.83 nM and the IC50, cell growth inhibition (CellTiter-Glo), KURAMOCHI (Ovary), KRAS Amp is 23.4 nM. In the assay with human KRAS G12V (human), this molecule yielded an IC50, cell growth inhibition (CellTiter-Glo), NCI-H441 (NSCLC) of 31.6 nM and an IC50, cell growth inhibition (CellTiter-Glo), SW480 (Colon) of 17.5 nM.

As a reminder, the IC50 is the concentration needed to halve the response being measured.
